One data set can be described thus: in vitro. To be noted: human. As to the method: (§1) The biological results were determined as EC50 (anti-HIV potency), CC50 (cytotoxicity) and SI (selectivity index, the ratio of CC50/EC50). […]
(§2) compounds were made directly in flat-bottomed 96-well microtiter trays by adding 100 μL medium to the 25 μL stock solution and transferring 25 μL of this solution to another well that contained 100 μL medium using a Biomek 3000 robot (Beckman Instruments, Fullerton, CA). Untreated control HIV- and mock-infected cell samples were included for each sample. HIV-1 WT strain (IIIB), HIV-1 drug-resistant strains including […]
(§3) (50% cell culture infectious dose) or culture medium was added to either the infected or mock-infected wells of the microtiter tray. Mock-infected cells were used to evaluate the effect of test compounds on uninfected cells in order to assess its cytotoxicity.
(§4) Exponentially growing MT-4 cells were centrifuged for 5 min at 1000 rpm and the supernatant was discarded.
(§5) 50 μL volumes were transferred to the microtiter tray wells. Five days after infection, the viability of mock- and HIV-infected cells was examined spectrophotometrically by […]
(§6) concentration of the test compound that reduced the viability of the mock-infected MT- […]

The test system of data set [1] is HIV-1 K103N/Y181C double mutant (RES056). The data set can be described thus: microbe, parasite or virus in culture. Format: cell-based. To be noted: for EC50: Human immunodeficiency virus 1, MT4, read-out: EC50 RES056. As to the method: as §1, §2, §3, §4, §5, §6
The test system of data set [2] is HIV-1 WT (IIIB). Put plainly: microbe, parasite or virus in culture. Format: cell-based. The note with it: for EC50: Human immunodeficiency virus 1, IIIB; for SI IIIB: selectivity index, ratio of CC50/EC50. On the procedure:
as §1, §2, §3, §4, §5, §6

Another data set has as its system HIV-1 E138K. The data set can be described thus: microbe, parasite or virus in culture. In kind it is cell-based. To be noted: Human immunodeficiency virus 1, MT4, read-out: EC50 E138K. On the procedure: as §2, §3, §4, §5, §6
The test system of another data set is HIV-1 L100I. The data set can be described thus: microbe, parasite or virus in culture. Format: cell-based. To be noted: Human immunodeficiency virus 1, MT4, read-out: EC50 L100I. As to the method:
as §2, §3, §4, §5, §6

Another data set has as its system HIV-1 Y188L. Put plainly: Anti-HIV-1 activity against Y188L mutant strain, MTT method in MT-4 cells. In kind it is cell-based. To be noted: Human immunodeficiency virus 1, MT4, read-out: EC50 Y188L. The source says: (§7) According to the anti-HIV-1(WT) results, the promising compounds 18a(1–5), 18b(1–5) and 18c1 were chosen to further evaluate their inhibitory potency against the prevalent HIV-1 mutations, including L100I, K103N, Y181C, Y188L, E138K, and F227L/V106A. […]. page 20:
(§8) or mock-infected wells of the microtiter tray. Mock-infected cells were used to evaluate
(§9) supernatant was discarded.
(§10) Five days after infection,
(§11) 4 cells by 50%. […]
On the technique in general: Formazan colour is commonly taken as a measure of viable cells.

The test system of a further data set is HIV-1 F227L/V106A. The data set can be described thus: Anti-HIV-1 activity against F227L/V106A mutant strain, MTT method in MT-4 cells. In kind it is cell-based. To be noted: Human immunodeficiency virus 1, MT4, read-out: EC50 F227L/V106A.
From the text: as §7, §8, §9, §10, §11

For another data set, the system named is HIV-1 K103N. The data set can be described thus: Anti-HIV-1 activity against K103N mutant strain, MTT method in MT-4 cells. Format: cell-based. To be noted: Human immunodeficiency virus 1, MT4, read-out: EC50 K103N.
From the text: as §7, §8, §9, §10, §11

Another data set relates to MT-4 cells. The note with it: mock-infected MT-4 cells, MTT method, same laboratory; cited from earlier work.
Data set [3] relates to HIV-1 K103N/Y181C double mutant (RES056). To be noted: cited from earlier work.
Data set [4] relates to HIV-1 WT (IIIB). The note with it: cited from earlier work; for EC50: MT-4 cells, MTT method, same laboratory, same method.
A further data set deals with HIV-1 Y181C. Put plainly: Anti-HIV-1 activity against Y181C mutant strain, MTT method in MT-4 cells. Format: cell-based. The note with it: Human immunodeficiency virus 1, MT4, read-out: EC50 Y181C, MT-4 cells, MTT method, mean ± SD, n ≥ 4.
From the text: as §8, §9, §10, §11

Another data set concerns the target T1, WT HIV-1 RT (Human immunodeficiency virus type 1 group M subtype B, UniProt P04585).
T1 construct: purchased Roche
Put plainly: biochemical. As to the method: Section 4. HIV-1 RT inhibition assays
A reverse transcriptase (RT) assay kit produced by Roche was selected for the RT inhibition assay.3 All the reagents for performing the RT reaction came with the kit and the ELSIA procedures for RT inhibition assay was carried out following the description in the kit protocol. Briefly, the reaction mixture containing template/primer complex, viral nucleotides (dNTPs) and RT in the incubation buffer with or without inhibitors was incubated for 1 h at 37 °C . After that, the reaction mixture was transferred to a streptavidine coated microtiter plate and incubated for another 1 h at 37 °C to make sure retranscriptional cDNA chain that consisted biotin labeled dNTPs bound to streptavidine. Then unbound dNTPs were removed using washing buffer and anti-DIG-POD working solution was added. After incubation for 1 h at 37 °C , the DIG-labeled dNTPs incorporated in cDNA were bound to the anti-DIG-POD antibody. The unbound

[5] abbreviates: MT4, MT-4 cells, MTT method, mean ± SD, n ≥ 4, read-out: EC50 IIIB.

Structures are written as SMILES. Where two headings read alike, the source gives them in different places.

For `Cc1cn([C@H]2C[C@H](N=[N+]=[N-])[C@@H](CO)O2)c(=O)[nH]c1=O` [AZT, zidovudine], in the data set “in vitro”, the CC50 at 5 days is over 7480 nM. In addition, the EC50 in [1] was determined as 37 ± 11 nM; with HIV-1 WT (IIIB) [2] (MT4, read-out: EC50 IIIB), 32 ± 9.6 nM. Further, in data set [1] (selectivity index, ratio of CC50/EC50), the “SI RES056” value is given as over 200. Also, the “SI IIIB” value with HIV-1 WT (IIIB) [2] was over 234.

Consider `Cc1cc(/C=C/C#N)cc(C)c1Oc1ccnc(Nc2ccc(CN3CCN(S(C)(=O)=O)CC3)cc2)n1` [BH-11c], for which the EC50 stood at 9.4 ± 5 nM in the data set on HIV-1 E138K; 14 ± 5.3 nM in the data set on HIV-1 L100I; 1320 ± 220 nM in the data set with HIV-1 Y188L; 210 ± 95 nM in the data set on HIV-1 F227L/V106A; 3.7 ± 1.6 nM with HIV-1 K103N.

For the molecule `CCS(=O)(=O)N1CCN(c2ccc(Nc3nccc(Oc4c(C)cc(C#N)cc4C)n3)cc2C#N)CC1` [Compound 17b2], in “in vitro”, the CC50 at 5 days was over 241000 nM. In addition, the EC50 in [1] was over 241000 nM; with HIV-1 WT (IIIB) [2] (setting [5]) it was 6.6 ± 1.7 nM. For the same molecule, in the data set on HIV-1 WT (IIIB) [2], the “SI IIIB” value is >36,585.

With `Cn1c(Cn2ccc(C(F)(F)F)c(Oc3cc(Cl)cc(C#N)c3)c2=O)n[nH]c1=O` [DOR, doravirine], the CC50 in the data set with MT-4 cells was over 294000 nM. Besides, the EC50 in [3] (MT-4 cells, MTT method, same laboratory, same method) is 15 ± 6 nM; with HIV-1 WT (IIIB) [4], 13 ± 4 nM. Besides, the “SI RES056” value in [3] (ratio of CC50/EC50) is over 20136. In addition, in the data set with HIV-1 WT (IIIB) [4] (ratio of CC50/EC50), the “SI IIIB” value is on record as >21,940.

Turning to `O=C1Nc2ccc(Cl)cc2[C@@](C#CC2CC2)(C(F)(F)F)O1` [EFV, efavirenz], the EC50 with HIV-1 E138K was 6.5 ± 1.7 nM; in the data set on HIV-1 L100I, 53 ± 28 nM; in the data set on HIV-1 Y188L it was 250 ± 56 nM; in the data set with HIV-1 F227L/V106A it was 260 ± 100 nM; in the data set on HIV-1 K103N it was 120 ± 24 nM; in data set [1], 300 ± 190 nM. Further, the EC50 with HIV-1 WT (IIIB) [2] (setting [5]) came out at 3.7 ± 0.67 nM. In addition, in the data set “in vitro”, the CC50 at 5 days is over 6330 nM.

As for `Cc1ccnc2c1NC(=O)c1cccnc1N2C1CC1` [NVP, Nevirapine], the EC50 is 2230 ± 980 nM with HIV-1 L100I; 7400 ± 1780 nM in the data set on HIV-1 Y181C; over 15000 nM with HIV-1 Y188L; over 15000 nM with HIV-1 F227L/V106A; 6040 ± 2660 nM with HIV-1 K103N; over 15000 nM in data set [1]. The EC50 in the data set on HIV-1 WT (IIIB) [2] (setting [5]) was determined as 190 ± 76 nM. In the data set “in vitro”, the CC50 at 5 days is over 15000 nM.

For orientation: IC50 means the midpoint of a concentration-inhibition curve. The low end stands for greater potency in that assay, the high end for weaker potency in that assay. Consider `Cc1cc(/C=C/C#N)cc(C)c1Nc1ccnc(Nc2ccc(C#N)cc2)n1` [RPV, rilpivirine], for which, at WT HIV-1 RT, it took 430 ± 87 nM to reach half-maximal inhibition (IC50). In addition, the EC50 in the data set with HIV-1 WT (IIIB) [4] was 1 ± 0.27 nM.

Values taken from article PMC10148624, “Discovery of diarylpyrimidine derivatives bearing piperazine sulfonyl as potent HIV-1 nonnucleoside reverse transcriptase inhibitors” (Communications Chemistry, 2023).
